Source: US20230416242A1, “DOUBLE DEGRADERS AND USES THEREOF” (Kymera Therapeutics, Inc., priority 2020, published 2023)

target: T1, IRAK4 (Homo sapiens, UniProt Q9NWZ3); experiment: IRAK4 MSD degradation in OCI-LY10; type: cell-based; conditions: OCI-LY10 cells, 24 hrs, Meso Scale Discovery
T1 construct: endogenous in cells; host or cells: OCI-LY10
T1 sequence (Q9NWZ3 1-460): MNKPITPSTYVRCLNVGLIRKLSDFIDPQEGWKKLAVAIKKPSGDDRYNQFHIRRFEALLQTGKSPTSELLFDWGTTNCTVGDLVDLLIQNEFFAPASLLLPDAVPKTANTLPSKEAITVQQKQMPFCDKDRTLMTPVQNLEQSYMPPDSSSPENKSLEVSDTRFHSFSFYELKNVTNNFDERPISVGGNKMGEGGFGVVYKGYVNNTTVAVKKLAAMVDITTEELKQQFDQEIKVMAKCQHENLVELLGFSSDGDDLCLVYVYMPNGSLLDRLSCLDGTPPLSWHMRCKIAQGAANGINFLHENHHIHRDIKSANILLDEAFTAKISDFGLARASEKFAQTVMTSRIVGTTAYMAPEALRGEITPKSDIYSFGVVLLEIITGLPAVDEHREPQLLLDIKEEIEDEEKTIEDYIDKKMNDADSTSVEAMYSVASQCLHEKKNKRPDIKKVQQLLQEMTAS
Protocol: Degradation of IRAK4 in OCI-LY10 was quantitatively measured using Meso Scale Discovery technology. OCI-LY10 cells were seeded in 96-well plates (Coming 3799) with a density of 300,000 cells per well in 100 μL fresh media. Compounds were then added to the assay plates with a final top concentration of 1 to 10 μM in a 1:3 dilution series with total of 8 doses. The assay plates were then incubated for 4 to 24 hours at 37° C. under 5% CO2. The assay plates were then centrifuged for 5 minutes and the cell pellets were treated with 100 μL/well RIPA lysis buffer (Boston BioProducts BP-115D) with proteinase inhibitors. To prepare MSD assay plates (Meso Scale Discovery Catalog number L15XA-3), the plates were coated with […] capture antibody (mouse Anti-IRAK4 antibody [2H9], ab119942) in PBS, at 40 μL/well. The plates were then incubated overnight at 4° C., washed 3 times with 150 μL/well TBST buffer (Cell Signaling Technology, Catalog number 9997S) and blocked with 150 μL/well blocking buffer (Meso Scale Discovery Catalog number R93BA-4). Cell lysates were then added to MSD assay plates and the plates were incubated at room temperature for 1 hour. The plates were then washed 3 times with 150 µL/well TBST buffer and 25 μL/well primary detection antibody (rabbit Anti-IRAK4 antibody [Y279], from Abcam. Catalog number ab32511, 1 μg/mL). The assay plates were then incubated at room temperature for 1 hour, washed 3 times with 150 μL/well TBST buffer and 25 μL/well secondary detection antibody, SULFO-TAG anti-rabbit antibody were added (anti rabbit antibody from Meso Scale Discovery, Catalog number R32AB-1, 1 μg/mL). The assay plates were then incubated at room temperature for 1 hour, washed 3 times with 150 μL/well TBST buffer, and 150 μL/well MSD reading buffer (Meso Scale Discovery catalog number R92TC-2) was added. The plates were then analyzed by a MSD reader (Meso Scale Discovery, Model Quick Plex SQ 120). The data was then analyzed by software Prism 7.0 from GraphPad and the dose-depended IRAK4 degradation were fit using a three-parameter logistic equation to calculate DC50.
The letter codes for IRAK4 DC50 include: A (<1 μM); B (1-10 μM); and C ([…]).

`CC(C)(O)c1cc2nn([C@H]3CC[C@H](CN4CCC(CCN(CCCCN5CCC(c6ccc(Nc7nc(N8CCCCC8)cnc7C(N)=O)cc6)CC5)c5cccc6c5C(=O)N(C5CCC(=O)NC5=O)C6=O)CC4)CC3)cc2cc1NC(=O)c1cccc(C(F)(F)F)n1` (stereo partly shown) [Compound I-4] and `CC(C)(O)c1cc2nc([C@H]3CC[C@H](CN4CCC(CCN(CCCCN5CCC(c6ccc(Nc7nc(N8CCCCC8)cnc7C(N)=O)cc6)CC5)c5cccc6c5C(=O)N(C5CCC(=O)NC5=O)C6=O)CC4)CC3)sc2cc1NC(=O)c1cccc(C(F)(F)F)n1` (stereo partly drawn) [Compound I-5, 3-((4-(1-(4-((2-(2,6-Dioxopiperidin-3-yl)-1,3-dioxoisoindolin-4-yl)(2-(1-(((1R,4R)-4-(5-(2-hydroxypropan-2-yl)-6-(6-(trifluoromethyl)picolinamido)benzo[d]thiazol-2-yl)cyclohexyl)methyl)piperidin-4-yl)ethyl)amino)butyl)piperidin-4-yl)phenyl)amino)-5-(piperidin-1-yl)pyrazine-2-carboxamide] cannot be ordered by DC50: under 1000 nM for the first, under 1000 nM for the second.

First: NC(=O)c1ncc(N2CCCCC2)nc1Nc1ccc(C2CCN(CCCCN(CCC3CCN(C[C@H]4CC[C@H](n5cc(NC(=O)c6cnn7ccc(N8CCOCC8)nc67)c(C(F)F)n5)CC4)CC3)c3cccc4c3C(=O)N(C3CCC(=O)NC3=O)C4=O)CC2)cc1 (stereo partly shown) [Compound I-6]
Second: NC(=O)c1ncc(N2CCCCC2)nc1Nc1ccc(C2CCN(CC(CNc3cccc4c3C(=O)N(C3CCC(=O)NC3=O)C4=O)C3CC4(C3)CN(C[C@H]3CC[C@H](n5cc(NC(=O)c6cnn7ccc(N8CCOCC8)nc67)c(C(F)F)n5)CC3)C4)CC2)cc1 (stereo partly shown) [Compound I-9]
The DC50 of the first is higher: 1000 to 10000 nM for the first, under 1000 nM for the second.

Compared with `CC(C)(O)c1cc2nc([C@H]3CC[C@H](CN4CC5(CC(C(CNc6cccc7c6C(=O)N(C6CCC(=O)NC6=O)C7=O)CN6CCC(c7ccc(Nc8nc(N9CCCCC9)cnc8C(N)=O)cc7)CC6)C5)C4)CC3)sc2cc1NC(=O)c1cccc(C(F)(F)F)n1` (stereo partly shown) [Compound I-7], `CC(C)(O)c1cc2nn([C@H]3CC[C@H](CN4CC5(CC(C(CNc6cccc7c6C(=O)N(C6CCC(=O)NC6=O)C7=O)CN6CCC(c7ccc(Nc8nc(N9CCCCC9)cnc8C(N)=O)cc7)CC6)C5)C4)CC3)cc2cc1NC(=O)c1cccc(C(F)(F)F)n1` (stereo partly shown) [Compound I-8] is lower in DC50: 1000 to 10000 nM for the first, under 1000 nM for the second.

`Cn1c(=O)n(C2CCC(=O)NC2=O)c2cccc(CCCCN(CCNC(=O)[C@H]3CC[C@H](n4cc5cc(NC(=O)c6cccc(C(F)(F)F)n6)c(C(C)(C)O)cc5n4)CC3)CC(=O)N3CC(N4CCC(c5ccc(Nc6nc(N7CCCCC7)cnc6C(N)=O)cc5)CC4)C3)c21` (stereo partly drawn) [Compound I-14, 3-((4-(1-(1-(2-((4-(1-(2,6-Dioxopiperidin-3-yl)-3-methyl-2-oxo-2,3-dihydro-1H-benzo[d]imidazole-4-yl)butyl)(2-((1R,4R)-4-(6-(2-hydroxypropan-2-yl)-5-(6-(trifluoromethyl)picolinamido)-2H-indazol-2-yl)cyclohexanecarboxamido)ethyl)amino)acetyl)azetidin-3-yl)piperidin-4-yl)phenyl)amino)-5-(piperidin-1-yl)pyrazine-2-carboxamide] and `Cn1c(=O)n(C2CCC(=O)NC2=O)c2cccc(CCCCN(CCNC(=O)[C@H]3CC[C@H](n4cc5cc(NC(=O)c6cccc(C(F)(F)F)n6)c(C(C)(C)O)cc5n4)CC3)CC(=O)N3CCC(c4ccc(Nc5nc(N6CCCCC6)cnc5C(N)=O)cc4)CC3)c21` (stereo partly shown) [Compound I-15] cannot be ordered by DC50: under 1000 nM for the first, under 1000 nM for the second.

`Cc1ncsc1-c1ccc(CNC(=O)[C@@H]2C[C@@H](O)CN2C(=O)[C@@H](NC(=O)COCCOCCN2CCC(c3ccc(Nc4nc(N5CCCCC5)cnc4C(N)=O)cc3)CC2)C(C)(C)C)c(OCCOCCN(C)C[C@H]2CC[C@H](n3cc4cc(NC(=O)c5cccc(C(F)(F)F)n5)c(C(C)(C)O)cc4n3)CC2)c1` [Compound I-17] and `Cc1ncsc1-c1ccc(CNC(=O)[C@@H]2C[C@@H](O)CN2C(=O)[C@@H](NC(=O)COCCOCCN2CCN(C(=O)c3ccc(Nc4nc(-c5cccc(NC(=O)c6ccc(C(C)(C)C)cc6)c5C)cn(C)c4=O)cc3)CC2)C(C)(C)C)c(OCCOCCN(C)C[C@H]2CC[C@H](n3cc4cc(NC(=O)c5cccc(C(F)(F)F)n5)c(C(C)(C)O)cc4n3)CC2)c1` [Compound I-18] fall in the same range of DC50: 1000 to 10000 nM for the first, 1000 to 10000 nM for the second.
